{"source": "ChEMBL document CHEMBL5316290", "about": "“Targeted Protein Degradation Induced by HEMTACs Based on HSP90” (J Med Chem, 2023)", "key": {"[1]": {"target": "T1, HSP90/Cyclin-dependent kinase 4 (Mus musculus) (UniProt P30285+P07901+P11499)", "assay": "HEMTAC activity at HSP90/CDK4 in mouse B16-F10 cells assessed as induction of CDK4 degradation by measuring maximal degradation incubated for 24 hrs by Western blot analysis relative to control", "format": "cell-based"}, "[2]": {"target": "T2, HSP90/Cyclin-dependent kinase 6 (Mus musculus) (UniProt P07901+Q64261+P11499)", "assay": "HEMTAC activity at HSP90/CDK6 in mouse B16-F10 cells assessed as induction of […] degradation by measuring maximal degradation incubated for 24 hrs by Western blot analysis relative to control", "format": "cell-based"}, "[3]": {"target": "T1, HSP90/Cyclin-dependent kinase 4 (Mus musculus)", "assay": "HEMTAC activity at HSP90/CDK4 in mouse B16-F10 cells assessed as induction of CDK4 degradation at 0.5 uM measured after 12 hrs by Western blot analysis", "format": "cell-based"}, "[4]": {"target": "T1, HSP90/Cyclin-dependent kinase 4 (Mus musculus)", "assay": "HEMTAC activity at HSP90/CDK4 in mouse B16-F10 cells assessed as induction of CDK4 degradation at 0.5 uM pretreated with proteasome inhibitor, MG132 for 2 hrs followed by compound addition and measured after 24 hrs by Western blot analysis", "format": "cell-based"}, "[5]": {"target": "T2, HSP90/Cyclin-dependent kinase 6 (Mus musculus)", "assay": "HEMTAC activity at HSP90/CDK6 in mouse B16-F10 cells assessed as induction of […] degradation at 0.5 uM pretreated with proteasome inhibitor, MG132 for 2 hrs followed by compound addition and measured after 24 hrs by Western blot analysis", "format": "cell-based"}, "[6]": {"tested_on": "B16-F10", "assay": "Binding affinity to HSP90/CDK6 in mouse B16-F10 assessed as ternary complex formation at 5 uM incubated for 6 hrs by co-immunoprecipitation assay", "format": "cell-based"}, "[7]": {"tested_on": "B16-F10", "assay": "Binding affinity to HSP90/CDK4 in mouse B16-F10 assessed as ternary complex formation at 5 uM incubated for 6 hrs by co-immunoprecipitation assay", "format": "cell-based"}, "[8]": {"target": "T2, HSP90/Cyclin-dependent kinase 6 (Mus musculus)", "assay": "HEMTAC activity at HSP90/CDK6 in mouse B16-F10 cells assessed as induction of CDK6 degradation at 0.1 uM incubated for 24 hrs in presence of palbociclib by Western blot analysis", "format": "cell-based"}, "[9]": {"tested_on": "A549", "assay": "Cytotoxicity against human A549 cells assessed as inhibition of cell growth incubated for 72 hrs by CCK-8 assay", "format": "functional, cell-based", "settings": "A549, 72 h"}, "[10]": {"tested_on": "HFF-1", "assay": "Cytotoxicity against human HFF-1 cells assessed as reduction of cell viability incubated for 72 hrs by CCK-8 assay", "format": "toxicity, cell-based", "settings": "hff-1, 72 h"}, "[11]": {"tested_on": "B16-F10", "assay": "Cytotoxicity against mouse B16-F10 cells assessed as inhibition of cell growth incubated for 72 hrs by CCK-8 assay", "format": "functional, cell-based", "settings": "B16-F10, 72 h"}, "[12]": {"tested_on": "B16-F10", "assay": "Induction of apoptosis in mouse B16-F10 cells assessed as live cells at 125 nM incubated for 48 hrs by Annexin V-FITC/PI staining based flow cytometry analysis (reference value: 92.85 %)", "format": "functional"}, "[13]": {"tested_on": "HepG2", "assay": "Cytotoxicity against human HepG2 cells assessed as inhibition of cell growth incubated for 72 hrs by CCK-8 assay", "format": "functional, cell-based", "settings": "HepG2, 72 h"}, "[14]": {"tested_on": "MDA-MB-231", "assay": "Cytotoxicity against human MDA-MB-231 cells assessed as inhibition of cell growth incubated for 72 hrs by CCK-8 assay", "format": "functional, cell-based", "settings": "MDA-MB-231, 72 h"}, "[15]": {"tested_on": "B16-F10", "assay": "Induction of apoptosis in mouse B16-F10 cells assessed as early apoptotic cells at 125 nM incubated for 48 hrs by Annexin V-FITC/PI staining based flow cytometry analysis (reference value: 3.42%)", "format": "functional"}, "[16]": {"tested_on": "B16-F10", "assay": "Induction of apoptosis in mouse B16-F10 cells assessed as dead cells at 125 nM incubated for 48 hrs by Annexin V-FITC/PI staining based flow cytometry analysis (reference value: 1.75%)", "format": "functional"}, "[17]": {"tested_on": "B16-F10", "assay": "Induction of apoptosis in mouse B16-F10 cells assessed as early apoptotic cells at 250 nM incubated for 48 hrs by Annexin V-FITC/PI staining based flow cytometry analysis (reference value: 3.42%)", "format": "functional"}, "[18]": {"tested_on": "B16-F10", "assay": "Induction of apoptosis in mouse B16-F10 cells assessed as late apoptotic cells at 250 nM incubated for 48 hrs by Annexin V-FITC/PI staining based flow cytometry analysis (reference value: 1.97%)", "format": "functional"}, "[19]": {"tested_on": "B16-F10", "assay": "Induction of apoptosis in mouse B16-F10 cells assessed as dead cells at 250 nM incubated for 48 hrs by Annexin V-FITC/PI staining based flow cytometry analysis (reference value: 1.75%)", "format": "functional"}, "[20]": {"tested_on": "B16-F10", "assay": "Induction of cell cycle arrest in mouse B16-F10 cells assessed as accumulation of cells at G1 phase at 125 nM incubated for 24 hrs by RNase/PI staining based flow cytometry analysis (reference value: 68.89%)", "format": "functional"}, "[21]": {"tested_on": "B16-F10", "assay": "Induction of cell cycle arrest in mouse B16-F10 cells assessed as accumulation of cells at G2 phase at 125 nM incubated for 24 hrs by RNase/PI staining based flow cytometry analysis (reference value: 16.13%)", "format": "functional"}, "[22]": {"tested_on": "B16-F10", "assay": "Induction of cell cycle arrest in mouse B16-F10 cells assessed as accumulation of cells at G1 phase at 250 nM incubated for 24 hrs by RNase/PI staining based flow cytometry analysis (reference value: 68.89%)", "format": "functional"}, "[23]": {"tested_on": "B16-F10", "assay": "Induction of cell cycle arrest in mouse B16-F10 cells assessed as accumulation of cells at G2 phase at 250 nM incubated for 24 hrs by RNase/PI staining based flow cytometry analysis (reference value: 16.13%)", "format": "functional"}, "[24]": {"tested_on": "B16-F10", "assay": "Induction of cell cycle arrest in mouse B16-F10 cells assessed as accumulation of cells at S phase at 250 nM incubated for 24 hrs by RNase/PI staining based flow cytometry analysis (reference value: 12.45%)", "format": "functional"}, "[25]": {"tested_on": "B16-F10", "assay": "Inhibition of colony formation in mouse B16-F10 cells at 0.25 to 1 uM incubated for 7 days with media replacement for every 2 days by crystal violet staining based analysis", "format": "functional, cell-based", "settings": "dose 0.25-1 µM, time 7.0 day"}, "[26]": {"tested_on": "B16-F10", "assay": "Inhibition of cell migration in mouse B16-F10 cells at 0.25 to 1 uM by wound healing assay", "format": "functional, cell-based", "settings": "dose 0.25-1 µM"}, "[27]": {"tested_on": "B16-F10", "assay": "Anticancer activity against mouse B16-F10 cells implanted in C57BL/6J mouse assessed as reduction in tumor growth at 20 to 40 mg/kg, ip administered once daily for 2 weeks and measured every 2 days by vernier caliper method", "format": "functional, organism-based", "settings": "dose 20-40 mg/kg"}, "[28]": {"assay": "Toxicity in C57BL/6J mouse implanted with mouse B16-F10 cells at 20 to 40 mg/kg, ip administered once daily for 2 weeks and measured every 2 days", "format": "organism-based", "settings": "in vivo, 336 h, dose 20-40 mg/kg"}, "[29]": {"tested_on": "B16-F10", "assay": "Anticancer activity against mouse B16-F10 cells implanted in C57BL/6J mouse assessed as reduction in CDK4/6 positive cells in tumor at 20 mg/kg, ip administered once daily for 2 weeks and measured every 2 days by immunohistochemical analysis", "format": "functional, organism-based"}, "[30]": {"tested_on": "B16-F10", "assay": "Anticancer activity against mouse B16-F10 cells implanted in C57BL/6J mouse assessed as increase in necrosis at 20 mg/kg, ip administered once daily for 2 weeks and measured every 2 days by H and E staining based analysis", "format": "functional, organism-based"}, "[31]": {"assay": "Toxicity in C57BL/6J mouse implanted with mouse B16-F10 cells assessed as morphological changes in lung at 20 mg/kg, ip administered once daily for 2 weeks and measured every 2 days by H and E staining based analysis", "format": "organism-based", "settings": "in vivo, 336 h"}}, "note": "The source made the active and inactive calls. No cut-off for these calls is given here.", "data": [{"compound": "COc1c(C)cnc(Cn2cc(C#CCCn3cc(CNC(=O)CN4CCN(c5ccc(Nc6ncc7c(C)c(C(C)=O)c(=O)n(C8CCCC8)c7n6)nc5)CC4)nn3)c3c(Cl)nc(N)nc32)c1C", "values": [{"measurement": "Emax", "setting": "[1]", "value": 88, "unit": "%"}, {"measurement": "Emax", "setting": "[2]", "value": 92, "unit": "%"}, {"measurement": "Activity", "setting": "[3]", "value": "Active"}, {"measurement": "Activity", "setting": "[4]", "value": "inactive"}, {"measurement": "Activity", "setting": "[5]", "value": "inactive"}, {"measurement": "Activity", "setting": "[6]", "value": "Active"}, {"measurement": "Activity", "setting": "[7]", "value": "Active"}, {"measurement": "Activity", "setting": "[8]", "value": "inactive"}, {"measurement": "IC50", "setting": "[9]", "value": 860, "unit": "nM"}, {"measurement": "Activity", "setting": "[10]", "value": "Non-Toxic"}, {"measurement": "IC50", "setting": "[11]", "value": 112, "unit": "nM"}, {"measurement": "Activity", "setting": "[12]", "value": 72.27, "unit": "%"}, {"measurement": "IC50", "setting": "[13]", "value": 499, "unit": "nM"}, {"measurement": "IC50", "setting": "[14]", "value": 313, "unit": "nM"}, {"measurement": "Activity", "setting": "[15]", "value": 14.42, "unit": "%"}, {"measurement": "Activity", "setting": "[16]", "value": 1.77, "unit": "%"}, {"measurement": "Activity", "setting": "[17]", "value": 20.11, "unit": "%"}, {"measurement": "Activity", "setting": "[18]", "value": 15.1, "unit": "%"}, {"measurement": "Activity", "setting": "[19]", "value": 2.55, "unit": "%"}, {"measurement": "Activity", "setting": "[20]", "value": 74.01, "unit": "%"}, {"measurement": "Activity", "setting": "[21]", "value": 18.05, "unit": "%"}, {"measurement": "Activity", "setting": "[22]", "value": 81.26, "unit": "%"}, {"measurement": "Activity", "setting": "[23]", "value": 16.12, "unit": "%"}, {"measurement": "Activity", "setting": "[24]", "value": 2.08, "unit": "%"}, {"measurement": "inhibition", "setting": "[25]", "value": "Active"}, {"measurement": "inhibition", "setting": "[26]", "value": "Active"}, {"measurement": "Activity", "setting": "[27]", "value": "Active"}, {"measurement": "Activity", "setting": "[28]", "value": "Non-Toxic"}, {"measurement": "Activity", "setting": "[29]", "value": "Active"}, {"measurement": "Activity", "setting": "[30]", "value": "Active"}, {"measurement": "Activity", "setting": "[31]", "value": "Non-Toxic"}]}]}
